Data reported in article PMC8881610 (Nature Communications, 2022).

Tests used:
Assay in all cases: cAMP accumulation assay, GCGR WT, mutant or modified constructs
Type in all cases: cell-based
Parameters in all cases: V5 (C); 6×His (C); expressed in transfected cells; host or cells: HEK293T
GCGR [1] = molecular target: GCGR (Homo sapiens, UniProt P47871, D195A); conditions: HEK-293T, GCGR D195A; HEK293T
Procedure: (§1) Human embryonic kidney 293 cells containing SV40 large T-antigen (HEK293T) were cultured in DMEM (Gibco) supplemented with 10% (v/v) fetal bovine serum (FBS, Gibco), 1 mM sodium pyruvate (Gibco) and 100 units/mL penicillin and 100 μg/mL streptomycin at 37 °C in 5% CO2. Chinese hamster ovary (CHO-K1) cells were cultured in F-12 (Gibco) containing 10% FBS, 100 units/mL penicillin and 100 μg/mL streptomycin at 37 °C in 5% CO2. For cAMP and receptor expression assays, HEK293T cells were seeded into 6-well cell culture plates at a density of 7 × 10^5 cells per well. After overnight incubation, cells were transfected with GIPR, GLP-1R or GCGR construct using Lipofectamine 2000 or Lipofectamine 3000 transfection reagent (Invitrogen). For whole-cell binding assay, CHO-K1 cells were seeded into 96-well fibronectin-treated cell culture plates at a density of 3 × 10^4 cells per well. After overnight incubation, cells were transfected with GIPR, GLP-1R or GCGR construct using Lipofectamine 2000 transfection reagent (Invitrogen). Following 24 h culturing, the transfected cells were ready for use. […]
(§2) For GIPR, GLP-1R and GCGR, multi-targeting agonist stimulated cAMP accumulation was measured by a LANCE Ultra cAMP kit (PerkinElmer). After 24 h culture, the transfected cells were seeded into 384-well microtiter plates at a density of 3,000 cells per well in HBSS supplemented with 5 mM HEPES, 0.1% (w/v) BSA or 0.1% (w/v) casein and 0.5 mM 3-isobutyl-1-methylxanthine. The cells were stimulated with different concentrations of peptide agonists for 40 min at RT. Eu-cAMP tracer and ULight^TM-anti-cAMP were then diluted by cAMP detection buffer and added to the plates separately to terminate the reaction. Plates were incubated at RT for 1 h and the fluorescence intensity measured at 620 nm and […] by an EnVision multilabel plate reader (PerkinElmer).

GCGR [2] = molecular target: GCGR (Homo sapiens, UniProt P47871, D195A/Q142A/R199A); conditions: HEK-293T, GCGR Q142A/D195A/R199A; HEK293T
GCGR (Homo sapiens, UniProt P47871, D195A/Q142A/R199A), sequence (P47871 26-477 Q142A/D195A/R199A): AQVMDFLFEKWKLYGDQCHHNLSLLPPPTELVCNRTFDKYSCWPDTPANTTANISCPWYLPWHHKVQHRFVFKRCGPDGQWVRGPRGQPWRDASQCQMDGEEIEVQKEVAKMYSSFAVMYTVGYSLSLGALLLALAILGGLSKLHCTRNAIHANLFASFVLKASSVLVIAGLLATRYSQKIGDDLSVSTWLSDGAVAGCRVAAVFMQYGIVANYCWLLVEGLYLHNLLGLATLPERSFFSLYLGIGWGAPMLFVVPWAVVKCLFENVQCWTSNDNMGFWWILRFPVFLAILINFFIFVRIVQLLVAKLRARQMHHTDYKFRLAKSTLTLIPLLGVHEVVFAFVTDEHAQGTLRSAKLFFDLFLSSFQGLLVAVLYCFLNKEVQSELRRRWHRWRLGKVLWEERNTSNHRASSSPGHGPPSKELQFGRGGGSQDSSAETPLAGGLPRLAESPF
Procedure: as §1, §2

GCGR [3] = molecular target: GCGR (Homo sapiens, UniProt P47871, K205A); conditions: GCGR K205A, HEK293T
GCGR (Homo sapiens, UniProt P47871, K205A), sequence (P47871 26-477 K205A): as the sequence (P47871 26-477 Q142A/D195A/R199A) above, with A117Q, A170D, A174R, K180A counted along it
Procedure: as §1, §2

GCGR [4] = molecular target: GCGR (Homo sapiens, UniProt P47871, Q131A); conditions: GCGR Q131A, HEK293T
GCGR (Homo sapiens, UniProt P47871, Q131A), sequence (P47871 26-477 Q131A): as the sequence (P47871 26-477 Q142A/D195A/R199A) above, with Q106A, A117Q, A170D, A174R counted along it
Procedure: as §1, §2

GCGR [5] = molecular target: GCGR (Homo sapiens, UniProt P47871, Q293A); conditions: GCGR Q293A, HEK293T
GCGR (Homo sapiens, UniProt P47871, Q293A), sequence (P47871 26-477 Q293A): as the sequence (P47871 26-477 Q142A/D195A/R199A) above, with A117Q, A170D, A174R, Q268A counted along it
Procedure: as §1, §2

GCGR [6] = molecular target: GCGR (Homo sapiens, UniProt P47871, R199A); conditions: GCGR R199A, HEK293T
GCGR (Homo sapiens, UniProt P47871, R199A), sequence (P47871 26-477 R199A): as the sequence (P47871 26-477 Q142A/D195A/R199A) above, with A117Q, A170D counted along it
Procedure: as §1, §2

GCGR [7] = molecular target: GCGR (Homo sapiens, UniProt P47871, W215A); conditions: HEK-293T, GCGR W215A; HEK293T
GCGR (Homo sapiens, UniProt P47871, W215A), sequence (P47871 26-477 W215A): as the sequence (P47871 26-477 Q142A/D195A/R199A) above, with A117Q, A170D, A174R, W190A counted along it
Procedure: as §1, §2

GCGR [8] = molecular target: GCGR (Homo sapiens, UniProt P47871, W87A); conditions: HEK-293T, GCGR W87A; HEK293T
GCGR (Homo sapiens, UniProt P47871, W87A), sequence (P47871 26-477 W87A): as the sequence (P47871 26-477 Q142A/D195A/R199A) above, with W62A, A117Q, A170D, A174R counted along it
Procedure: as §1, §2

GCGR [9] = molecular target: GCGR (Homo sapiens, UniProt P47871, Y138A); conditions: HEK-293T, GCGR Y138A; HEK293T
GCGR (Homo sapiens, UniProt P47871, Y138A), sequence (P47871 26-477 Y138A): as the sequence (P47871 26-477 Q142A/D195A/R199A) above, with Y113A, A117Q, A170D, A174R counted along it
Procedure: as §1, §2

GCGR [10] = molecular target: GCGR (Homo sapiens, UniProt P47871, Y145A); conditions: HEK-293T, GCGR Y145A; HEK293T
GCGR (Homo sapiens, UniProt P47871, Y145A), sequence (P47871 26-477 Y145A): as the sequence (P47871 26-477 Q142A/D195A/R199A) above, with A117Q, Y120A, A170D, A174R counted along it
Procedure: as §1, §2

GCGR [11] = molecular target: GCGR (Homo sapiens, UniProt P47871, Y202A); conditions: HEK-293T, GCGR Y202A; HEK293T
GCGR (Homo sapiens, UniProt P47871, Y202A), sequence (P47871 26-477 Y202A): as the sequence (P47871 26-477 Q142A/D195A/R199A) above, with A117Q, A170D, A174R, Y177A counted along it
Procedure: as §1, §2

[12] = read-out: cAMP pEC50 (converted)

GCGR (Homo sapiens, UniProt P47871, D195A), sequence (P47871 26-477 D195A): as the sequence (P47871 26-477 Q142A/D195A/R199A) above, with A117Q, A174R counted along it

**Q.** Which Emax (GCGR [1]) does the source give for CCCCCCCCCCCCCCCC(=O)N[C@@H](CCC(=O)NCCCC[C@H](NC(=O)[C@H](CC(=O)O)NC(=O)[C@H](CO)NC(=O)[C@@H](NC(=O)[C@H](Cc1ccccc1)NC(=O)[C@@H](NC(=O)CNC(=O)[C@H](CCC(N)=O)NC(=O)C(C)(C)NC(=O)[C@@H](N)Cc1c[nH]cn1)[C@@H](C)O)[C@@H](C)O)C(=O)N[C@@H](CO)C(=O)N[C@@H](CCCCN)C(=O)N[C@@H](Cc1ccc(O)cc1)C(=O)N[C@@H](CC(C)C)C(=O)N[C@@H](CC(=O)O)C(=O)N[C@@H](CCC(=O)O)C(=O)N[C@@H](CCCNC(=N)N)C(=O)N[C@@H](C)C(=O)N[C@@H](C)C(=O)N[C@@H](CCC(N)=O)C(=O)N[C@@H](CC(=O)O)C(=O)N[C@@H](Cc1ccccc1)C(=O)N[C@H](C(=O)N[C@@H](CCC(N)=O)C(=O)N[C@@H](Cc1c[nH]c2ccccc12)C(=O)N[C@@H](CC(C)C)C(=O)N[C@@H](CC(C)C)C(=O)N[C@@H](CC(=O)O)C(=O)NCC(=O)NCC(=O)N1CCC[C@H]1C(=O)N[C@@H](CO)C(=O)N[C@@H](CO)C(=O)NCC(=O)N[C@@H](C)C(=O)N1CCC[C@H]1C(=O)N1CCC[C@H]1C(=O)N1CCC[C@H]1C(=O)N[C@@H](CO)C(N)=O)C(C)C)C(=O)O [Peptide 20] here?
**A.** 102 ± 2.1%

**Q.** What about the Emax (GCGR [2]) of the same compound?
**A.** 100 ± 2.37%

**Q.** And the EC50 (GCGR [3]; [12])?
**A.** 0.0132 nM

**Q.** And the Emax (GCGR [3]; HEK-293T)?
**A.** 101 ± 1.28%

**Q.** And the EC50 (GCGR [4]; [12])?
**A.** 0.0282 nM

**Q.** And the Emax (GCGR [4]; HEK-293T)?
**A.** 101 ± 1.59%

**Q.** And the EC50 (GCGR [5]; [12])?
**A.** 0.00832 nM

**Q.** What about the Emax (GCGR [5]; HEK-293T) of the same compound?
**A.** 99.5 ± 1.63%

**Q.** And the EC50 (GCGR [6]; [12])?
**A.** 0.0129 nM

**Q.** What about the Emax (GCGR [6]; HEK-293T) of the same compound?
**A.** 99.7 ± 1.47%

**Q.** And the Emax (GCGR [7])?
**A.** 99.6 ± 2.02%

**Q.** And the Emax (GCGR [8])?
**A.** 98.1 ± 1.54%

**Q.** What about the Emax (GCGR [9]) of the same compound?
**A.** 101 ± 2.39%

**Q.** What about the Emax (GCGR [10]) of the same compound?
**A.** 103 ± 1.79%

**Q.** What about the Emax (GCGR [11]) of the same compound?
**A.** 103 ± 2.48%
